≈ marks a conversion by molar mass, not a printed value. Marks after values point to notes of the source that are not given here.
Columns and labels:
P. aeruginosa strains = assay: MIC/MBC of BIOC76 and gallium citrate alone against 21 strains; format: cell-based, Pseudomonas aeruginosa; settings: for MBC Rep 1 / MIC Rep 1: alone
Excerpt: Determined the MIC of each test article individually against the strains being tested using the CLSI MIC/MBC method.
In this study, we established the MIC/MiBC's of BIOC76 and gallium citrate alone against each of 21 P. aeruginosa strains. […] The activity of both compounds is also strain-dependent. The results are as follows (the species for each strain is Pseudomonas aeruginosa: […]

P. aeruginosa (PAK) [1] = assay: Combination MIC/MBC assay, BIOC76 with fixed gallium citrate; format: cell-based, Pseudomonas aeruginosa
Protocol: Combination MIC/MBC assays are useful when you want to look at only a few concentrations of one compound (Gallium citrate) combined with many concentrations of the second compound (BIOC76).
This method also allows us to see the change in both the MIC and MBC of a drug when in combination with another drug. Checkerboard assays only allow us to see changes in the MIC's.
Test articles are added to a 96-well plate so that when a 2× bacterial culture (prepared to 10^6 CFU/ml) is added, the final concentration in all wells was 1×.
All test articles are prepared at 4×→diluted 1:1 when other TA is added (2×) and diluted 1:1 again to 1× when bacteria are added.
TA #1 (Gallium citrate) is prepared and added to entire rows of a plate at a single concentration.
TA #2 (BIOC76) in then prepared and serially diluted in TA #1, so there are 2-fold dilutions of TA #2 combined with a single concentration of TA #1.
Plates were incubated at 37° C. for 18-24 h.
The ΔMIC/IBC is used to show the change in the MIC/IBC of BIOC76 when in combination with Gallium citrate (compared to when BIOC76 is used alone).
ΔMIC/MBC is the fold-decrease in BIOC76 concentration as a result of the combination.
We concluded BIOC76 and gallium citrate maintain synergistic activity so long as the gallium concentration is at least about 0.005 to about 0.02 mg/ml. In this experimental, we set up MIC/MBC assay and serially diluted BIOC76 in rows with fixed concentrations of gallium citrate. […] The results are shown in FIG. 6, and in the following tables: […]

P. aeruginosa (PAK) [2] = assay: Time-kill assay in CAMHB at 37° C.; format: cell-based, Pseudomonas aeruginosa; settings: 4 mg/ml BIOC76 alone, broth
Protocol: In this study, we established the viability of P. aeruginosa in a broth at 37° C. when exposed to BIOC76 alone compared to BIOC76+gallium citrate. […] To conduct this experiment, we suspended P. aeruginosa (PAK) in CAMHB to a final concentration of 10^6 CFU/ml. Bacteria were exposed to BIOC76, GaCi, or BIOC76+GaCi and incubated at 37° C.

P. aeruginosa biofilms = assay: Biofilm eradication (MBEC) on peg lid
[3] = strain N0049 (PAK), with 0.0156 mg/ml GaCi
[4] = strain N0049 (PAK), with 0.0325 mg/ml GaCi
[5] = strain N0049 (PAK), with 0.065 mg/ml GaCi
[6] = strain N0049 (PAK), with 0.125 mg/ml GaCi
[7] = strain N0049 (PAK), with 0.25 mg/ml GaCi
[8] = strain N0049 (PAK), with 0.5 mg/ml GaCi
[9] = strain N0049 (PAK), with 1 mg/ml GaCi
[10] = strain N0049 (PAK), with 2 mg/ml GaCi

Protocol for P. aeruginosa strain PAK: All test articles are prepared at 4×→diluted 1:1 when other TA is added (2×), and diluted 1:1 again to 1× when bacteria are added
The Checkerboard assay (described herein) was used with a hepta-substituted cyclodextrin-based NO donor (hereinafter referred to as BIOC76) having approximately ˜4.7 μmol NO/mg dry powder.
Experimental Design: The MIC of BIOC76 and Gallium nitrate individually, then set up a checkerboard assay testing 49 combinations of BIOC76 and Gallium nitrate concentrations against 10^6 CFU/ml P. aeruginosa strain PAK. Plates were incubated at 37° C. for 18-24 h, and growth was assessed visually.

SMILES: O=NN(O)N(CCO)CC1OC2OC3C(CN(CCO)N(O)N=O)OC(OC4C(CN(CCO)N(O)N=O)OC(OC5C(CN(CCO)N(O)N=O)OC(OC6C(CN(CCO)N(O)N=O)OC(OC7C(CN(CCO)N(O)N=O)OC(OC8C(CN(CCO)N(O)N=O)OC(OC1C(O)C2O)C(O)C8O)C(O)C7O)C(O)C6O)C(O)C5O)C(O)C4O)C(O)C3O (centres unmarked) [BIOC76]
- mode of activity alone (conclusion) (P. aeruginosa strains; 21 P. aeruginosa strains): largely bacteriostatic
- MBC Rep 1 (P. aeruginosa strains; strain N0047 (AR-BANK #103)): 8000 µg/mL
- MIC Rep 1 (P. aeruginosa strains; strain N0047 (AR-BANK #103)): 2000 µg/mL
- MBC Rep 1 (P. aeruginosa strains; strain N0048 (ATCC 19143)): 2000 µg/mL
- MIC Rep 1 (P. aeruginosa strains; strain N0048 (ATCC 19143)): 500 µg/mL
- MBC Rep 1 (P. aeruginosa strains; strain N0049 (PAK)): 4000 µg/mL
- MIC Rep 1 (P. aeruginosa strains; strain N0049 (PAK)): 2000 µg/mL
- MBC Rep 1 (P. aeruginosa strains; strain N0050 (AR-BANK #0095)): 8000 µg/mL
- MIC Rep 1 (P. aeruginosa strains; strain N0050 (AR-BANK #0095)): 2000 µg/mL
- MBC Rep 1 (P. aeruginosa strains; strain N0051 (AU32077)): 4000 µg/mL
- MIC Rep 1 (P. aeruginosa strains; strain N0051 (AU32077)): 1000 µg/mL
- MBC Rep 1 (P. aeruginosa strains; strain N0052 (AU25834)): 2000 µg/mL
- MIC Rep 1 (P. aeruginosa strains; strain N0052 (AU25834)): 1000 µg/mL
- MBC Rep 1 (P. aeruginosa strains; strain N0053 (AU30524)): 16000 µg/mL
- MIC Rep 1 (P. aeruginosa strains; strain N0053 (AU30524)): 4000 µg/mL
- MBC Rep 1 (P. aeruginosa strains; strain N0054 (AU26773)): 16000 µg/mL
- MIC Rep 1 (P. aeruginosa strains; strain N0054 (AU26773)): 2000 µg/mL
- MBC Rep 1 (P. aeruginosa strains; strain N0055 (AU22725)): >8000 µg/mL
- MIC Rep 1 (P. aeruginosa strains; strain N0055 (AU22725)): 1000 µg/mL
- MBC Rep 1 (P. aeruginosa strains; strain N0056 (AU22505)): 16000 µg/mL
- MIC Rep 1 (P. aeruginosa strains; strain N0056 (AU22505)): 8000 µg/mL
- MBC Rep 1 (P. aeruginosa strains; strain N0057 (AU35400)): 32000 µg/mL
- MIC Rep 1 (P. aeruginosa strains; strain N0057 (AU35400)): 8000 µg/mL
- MBC Rep 1 (P. aeruginosa strains; strain N0058 (AU32543)): 8000 µg/mL
- MIC Rep 1 (P. aeruginosa strains; strain N0058 (AU32543)): 2000 µg/mL
- MBC Rep 1 (P. aeruginosa strains; strain N0059 (AR-BANK #0054)): >16000 µg/mL
- MIC Rep 1 (P. aeruginosa strains; strain N0059 (AR-BANK #0054)): 2000 µg/mL
- MBC Rep 1 (P. aeruginosa strains; strain N0069 (AR-BANK #0090)): >16000 µg/mL
- MIC Rep 1 (P. aeruginosa strains; strain N0069 (AR-BANK #0090)): 2000 µg/mL
- MBC Rep 1 (P. aeruginosa strains; strain N0070 (AR-BANK #0092)): >16000 µg/mL
- MIC Rep 1 (P. aeruginosa strains; strain N0070 (AR-BANK #0092)): 2000 µg/mL
- MBC Rep 1 (P. aeruginosa strains; strain N0071 (AR-BANK #0100)): >16000 µg/mL
- MIC Rep 1 (P. aeruginosa strains; strain N0071 (AR-BANK #0100)): 2000 µg/mL
- MBC Rep 1 (P. aeruginosa strains; strain N0072 (AR-BANK #0105)): >16000 µg/mL
- MIC Rep 1 (P. aeruginosa strains; strain N0072 (AR-BANK #0105)): 2000 µg/mL
- MBC Rep 1 (P. aeruginosa strains; strain N0079 (AR-BANK #0108)): >16000 µg/mL
- MIC Rep 1 (P. aeruginosa strains; strain N0079 (AR-BANK #0108)): 2000 µg/mL
- MBC Rep 1 (P. aeruginosa strains; strain N0080 (AR-BANK #0110)): >16000 µg/mL
- MIC Rep 1 (P. aeruginosa strains; strain N0080 (AR-BANK #0110)): 2000 µg/mL
- MBC Rep 1 (P. aeruginosa strains; strain N0081 (AR-BANK #0111)): >16000 µg/mL
- MIC Rep 1 (P. aeruginosa strains; strain N0081 (AR-BANK #0111)): 2000 µg/mL
- MBC Rep 1 (P. aeruginosa strains; strain N0099 (ATCC 29260)): 8000 µg/mL
- MIC Rep 1 (P. aeruginosa strains; strain N0099 (ATCC 29260)): 2000 µg/mL
- MIC BIOC76 (P. aeruginosa (PAK) [1]; PAK, alone): 2000 µg/mL
- Combo MIC BIOC76 (P. aeruginosa (PAK) [1]; PAK, with 0.0039 mg/ml GaCi): 2000 µg/mL
- Combo MIC BIOC76 (P. aeruginosa (PAK) [1]; PAK, with 0.0078 mg/ml GaCi): 1000 µg/mL
- Combo MIC BIOC76 (P. aeruginosa (PAK) [1]; PAK, with 0.0156 mg/ml GaCi): 250 to 500 µg/mL
- Combo MIC BIOC76 (P. aeruginosa (PAK) [1]; PAK, with 0.0313 mg/ml GaCi): 125 µg/mL
- MBC BIOC76 alone (P. aeruginosa (PAK) [1]; strain N0049 (PAK)): 4000 µg/mL
- MIC BIOC76 alone (P. aeruginosa (PAK) [1]; strain N0049 (PAK)): 2000 µg/mL
- Combo MBC BIOC76 (P. aeruginosa (PAK) [1]; [3]): 4 mg/mL
- Δ MBC (P. aeruginosa (PAK) [1]; [3]): 0 fold-decrease
- Δ MIC (P. aeruginosa (PAK) [1]; [3]): 4 fold-decrease
- Combo MBC BIOC76 (P. aeruginosa (PAK) [1]; [4]): 4 mg/mL
- Combo MIC BIOC76 (P. aeruginosa (PAK) [1]; [4]): 125000 µg/mL
- Δ MBC (P. aeruginosa (PAK) [1]; [4]): 0 fold-decrease
- Δ MIC (P. aeruginosa (PAK) [1]; [4]): 16 fold-decrease
- Combo MBC BIOC76 (P. aeruginosa (PAK) [1]; [5]): 4 mg/mL
- Combo MIC BIOC76 (P. aeruginosa (PAK) [1]; [5]): <60 µg/mL
- Δ MBC (P. aeruginosa (PAK) [1]; [5]): 0 fold-decrease
- Combo MBC BIOC76 (P. aeruginosa (PAK) [1]; [6]): 4 mg/mL
- Combo MIC BIOC76 (P. aeruginosa (PAK) [1]; [6]): <60 µg/mL
- Δ MBC (P. aeruginosa (PAK) [1]; [6]): 0 fold-decrease
- Combo MBC BIOC76 (P. aeruginosa (PAK) [1]; [7]): 2 mg/mL
- Combo MIC BIOC76 (P. aeruginosa (PAK) [1]; [7]): <60 µg/mL
- Δ MBC (P. aeruginosa (PAK) [1]; [7]): 2 fold-decrease
- Combo MBC BIOC76 (P. aeruginosa (PAK) [1]; [8]): 2 mg/mL
- Combo MIC BIOC76 (P. aeruginosa (PAK) [1]; [8]): <60 µg/mL
- Δ MBC (P. aeruginosa (PAK) [1]; [8]): 2 fold-decrease
- Combo MBC BIOC76 (P. aeruginosa (PAK) [1]; [9]): 4* mg/ml
- Combo MIC BIOC76 (P. aeruginosa (PAK) [1]; [9]): <60 µg/mL
- Δ MBC (P. aeruginosa (PAK) [1]; [9]): 0* fold-decrease
- Combo MBC BIOC76 (P. aeruginosa (PAK) [1]; [10]): 2 mg/mL
- Combo MIC BIOC76 (P. aeruginosa (PAK) [1]; [10]): <60 µg/mL
- Δ MBC (P. aeruginosa (PAK) [1]; [10]): 2 fold-decrease
- bacterial survival over 24 h (P. aeruginosa (PAK) [2]): can recover after 24 h
- MIC BIOC76 alone (P. aeruginosa strain PAK): 1000 µg/mL (≈ 539 µM)
- MIC BIOC76 combo (P. aeruginosa strain PAK; in combination with Ga(NO3)3): 125 µg/mL
- MBEC of BIOC76 (P. aeruginosa biofilms; PAK (N0049), 3-log reduction in biofilm): 4 mg/mL
- effectiveness against P. aeruginosa biofilms (P. aeruginosa biofilms; biofilms grown under aerobic conditions): effective

— patent US20240261243A1, “NITRIC OXIDE DONORS, COMPOSITIONS, AND METHODS OF USE” (priority 2020, published 2024)
